Read-outs that look alike come from different tables or passages of the source. Ends that are not written are not given here.
Assays:
CCK Receptor (Pancreas) = biological target: T1, CCK Receptor (Pancreas) (Rattus norvegicus, UniProt P30551); assay: CCK Receptor Binding (Pancreas), inhibition of 125I-CCK-33 binding; set-up: species or system Sprague-Dawley rats
T1 construct: The whole pancreas was dissected free of fat tissue and was homogenized; from tissue; host or cells: rat whole pancreas membranes
T1 sequence (P30551 1-444): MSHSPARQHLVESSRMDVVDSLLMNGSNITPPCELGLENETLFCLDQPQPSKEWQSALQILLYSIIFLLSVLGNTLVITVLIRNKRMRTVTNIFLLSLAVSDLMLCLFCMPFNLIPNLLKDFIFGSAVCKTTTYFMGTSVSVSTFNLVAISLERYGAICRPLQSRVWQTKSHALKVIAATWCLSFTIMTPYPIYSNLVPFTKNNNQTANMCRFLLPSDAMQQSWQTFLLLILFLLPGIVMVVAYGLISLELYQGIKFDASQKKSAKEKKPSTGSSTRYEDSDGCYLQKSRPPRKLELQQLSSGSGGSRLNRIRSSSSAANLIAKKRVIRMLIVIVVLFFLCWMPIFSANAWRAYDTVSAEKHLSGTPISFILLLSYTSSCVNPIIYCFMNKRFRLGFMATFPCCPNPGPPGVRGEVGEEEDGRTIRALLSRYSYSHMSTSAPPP
Method: CCK-33 was radiolabeled with ¹²⁵I-Bolton Hunter reagent (2000 Ci/mmole) as described by Sankara et al. (J. Biol. Chem. 254: 9349-9351, 1979). Receptor binding was performed according to Innis and Snyder (Proc. Natl. Acad. Sci. 77, 6917-6921, 1980) with the minor modification of adding the additional protease inhibitors, phenylmethane sulfonyl fluoride and o-phenanthroline.
Male Sprague-Dawley rats (200-350g) were sacrificed by decapitation. The whole pancreas was dissected free of fat tissue and was homogenized in 20 volumes of ice-cold 50 mM Tris HCI (pH 7.7 at 25°C) with a Brinkmann Polytron PT 10. The homogenates were centrifuged at 48,000 g for 10 min. Pellets were resuspended in Tris Buffer, centrifuged as above and resuspended in 200 volumes of binding assay buffer (50 mM Tris HCI, pH 7.7 at 25°C, 5 mM dithiothrietol, 0.1 mM bacitracin, 1.2 mM phenylmethane sulfonyl fluoride and 0.5 mM o-phenanthroline). […] All assays were run in duplicate or triplicate. The reaction mixtures were incubated at 37°C for 30 minutes and centrifuged in a Beckman Microfuge (4 minutes) immediately after adding 1 ml of ice-cold incubation buffer. The supernatant was aspirated and discarded, pellets were counted with a Beckman gamma 5000. For Scatchard analysis (Ann. N.Y. Acad. Sci. 51: 660, 1949), ¹²⁵I-CCK-33 was progressively diluted with increasing concentrations of CCK-33.

Gastrin Receptor = biological target: T2, Gastrin Receptor (Cavia porcellus, UniProt H0VZC5); assay: Gastrin Receptor Binding in Guinea Pig Gastric Glands (125I-gastrin)
T2 construct: The washed guinea pig gastric glands prepared as above were resuspended; from tissue; host or cells: guinea pig gastric mucosal glands (intact glands after collagenase)
T2 sequence (H0VZC5 1-426): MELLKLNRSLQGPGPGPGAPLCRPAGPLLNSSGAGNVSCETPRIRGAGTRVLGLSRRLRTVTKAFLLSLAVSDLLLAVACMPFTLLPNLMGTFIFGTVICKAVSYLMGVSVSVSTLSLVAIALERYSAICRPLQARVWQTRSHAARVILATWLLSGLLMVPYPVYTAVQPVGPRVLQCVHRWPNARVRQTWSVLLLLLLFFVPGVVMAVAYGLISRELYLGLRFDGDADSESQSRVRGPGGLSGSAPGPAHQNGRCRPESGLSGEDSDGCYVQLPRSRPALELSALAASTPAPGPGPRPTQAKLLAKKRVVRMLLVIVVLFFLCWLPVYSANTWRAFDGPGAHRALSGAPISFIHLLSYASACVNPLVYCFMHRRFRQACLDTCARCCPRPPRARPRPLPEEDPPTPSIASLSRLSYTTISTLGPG

DBA2 mice = assay: Black/white exploration test (animal model of anxiety); assay type: in vivo; details: for active dose range / difference in time spent in the black and white side / preference for rearing in the black side: mice; for active dose range: black/white exploration test
Description: The black/white exploration test [Crawley et al. Pharmacology, Biochemistry and Behav. 13, 167 (1980)] is a simple animal model of anxiety. Rodents placed in a two compartment box which consists of a brightly lit, white painted side and a dimly lit, black painted side, display a marked preference for the black side of the apparatus. This behavior is caused by the aversive properties of the brightly lit, white painted section. Classical anxiolytic drugs [such as diazepam, see Crawley, supra] and novel anxiolytic drugs [such as 5HT₃ antagonists, see Jones et al. Br. J. Pharm. 93, 985 (1988)] decrease the preference of the animal for the black dimly lit side of the apparatus.
A. Naive male DBA2 mice (25-30) were housed on a reversed light/dark cycle and tested during the dark phase of the cycle under dim red light. The apparatus consisted of an open topped box (40cm long X 27 cm wide X 27 cm high) divided into a small area (2/5) and a large area (3/5) by a partition that extended 20 cm above the walls. There was a 7.5 X 7.5 cm opening in the partition at floor level. The small compartment was painted black and the large compartment white. The floor of each compartment was marked into 9 cm squares. The white compartment was illuminated by a 100 W tungsten bulb 17 cm above the box and the black compartment by a similarly placed 60 W red bulb.
Animals that had been injected with drug or vehicle were placed individually into the centre of the white area and their behavior observed during a 5 minute period by remote video recording. Four behavioral parameters were recorded every minute: the number of exploratory rears in the white and black sections, the number of line crossings in the black and white sections, the number of transitions between the two sections and the time spent in the black and white sections. Animals were tested in treatment groups of 8-10 and vehicle controls were run on each test day. Data were analysed by ANOVA and Dunnetts test.

Sprague Dawley rats = assay: Exploratory/locomotor activity in automated activity cages (novel environment); assay type: in vivo
Method: B. The effects of CCK-8 and compound A on the exploratory behavior of the rat were examined in automated activity cages and by direct observation. It is known that exogenous CCK-8 decreases exploratory behavior in rats in a novel environment by accelerating the process of habituation. [See Crawley, Pharm. Biochem & Behav. 20, 23-27 (1984).]
Expt 1. Male Sprague Dawley rats were injected ([…].) with CCK-8 and immediately placed in automated activity cages. Activity was measured for 30 minutes past injection.
Expt 2. Male SD rats were injected (s.c.) with the CCK antagonist compound A (0.0001-10mg/kg) and immediately placed in the automated activity cages. […] As the anxiolytic drug chlordiazepoxide also increases spontaneous locomotor activity in rats in a novel environment [(McElroy et al. Psychopharm. 85: 224-226 (1985)] these findings are consistent with an anxiolytic action of Compound A useful in the treatment of panic disorder.

rats = assay: Exploration in a novel environment by direct observation (perspex cage); assay type: in vivo; details: 0.1 mg/kg, 15 minute period 15 minutes after treatment
Method: Expt 3. In order to assess further the effect of Compound A on exploration in a novel environment, the motoric hehaviors of rats placed in a perspex cage was recorded by direct observation for a 15 minute period 15 minutes after treatment with Compound A.
Experimenters (unaware of the treatments the animals had received) recorded the frequency and duration of rearing, sniffing, grooming and cage crossing using a keypad interfaced to a BBC microcomputer.

**Q.** Which IC50 (CCK Receptor (Pancreas)) does the source give for `CN1C(=O)C(NC(=O)c2cc3ccccc3[nH]2)N=C(c2ccncc2)c2ccccc21` (racemic) [Example 17, 1,3-Dihydro-3(RS)-(2-indolecarbonylamino)-1-methyl-5-(4-pyridyl)-2H-1,4-benzodiazepin-2-one] here?
**A.** The IC50 was 0.0068 µM.

**Q.** What about the IC50 (Gastrin Receptor) of the same molecule?
**A.** Its IC50 is 0.66 µM.

**Q.** How did the IC50 (CCK Receptor (Pancreas)) turn out when `CN1C(=O)C(NC(=O)c2cc3ccccc3[nH]2)N=C(c2ccccn2)c2ccccc21` (racemic) [Example 24, (RS)-N-(2,3-Dihydro-1-methyl-2-oxo-5-(2-pyridyl)-1H-1,4-benzodiazepin-3-yl)-1H-indole-2-carboxamide] was run?
**A.** Its IC50 is 0.00037 µM.

**Q.** What about the IC50 (Gastrin Receptor) of the same molecule?
**A.** Its IC50 is 0.16 µM.

**Q.** Which IC50 (CCK Receptor (Pancreas)) does the source give for `Cc1cccc(NC(=O)NC2N=C(c3ccccn3)c3ccccc3N(CC(C)C)C2=O)c1` (racemic) [Example 25, (RS)-N-(2,3-Dihydro-1-(2-methylpropyl)-2-oxo-5-(2-pyridyl)-1H-1,4-benzodiazepin-3-yl)-N′-(3-methyl-phenyl)-urea] here?
**A.** Its IC50 is 0.49 µM.

**Q.** What about the IC50 (Gastrin Receptor) of the same molecule?
**A.** Its IC50 is 0.00067 µM.

**Q.** For `CN1C(=O)C(NC(=O)Nc2ccc3c(c2)CCC3)N=C(c2ccccc2)c2ccccc21` (racemic) [Example 26, (RS)-N-(2,3-dihydro-1-methyl-2-oxo-5-phenyl-1H-1,4-benzodiazepin-3-yl)-N′-(5-indanyl)urea], which IC50 (CCK Receptor (Pancreas)) is on record?
**A.** Its IC50 is 0.075 µM.

**Q.** And the IC50 (Gastrin Receptor; guinea pig gastric glands, 125I-gastrin, 25°C 30 minutes, read-out: IC50(µM) 125I-Gastrin Gastric Glands)?
**A.** The IC50 was 0.0019 µM.

**Q.** Which IC50 (CCK Receptor (Pancreas); rat pancreas membranes, 125I-CCK-33, 37°C 30 minutes, read-out: IC50(µM) 125I-CCK Pancreas) does the source give for `Cc1cccc(NC(=O)N[C@@H]2N=C(c3ccccc3)c3ccccc3N(C)C2=O)c1` [Example 5, (R)-N-(2,3-Dihydro-1-methyl-2-oxo-5-phenyl-1H-1,4-benzodiazepin-3-yl)-N′-(3-methylphenyl)-urea] here?
**A.** The IC50 was 0.28 µM.

**Q.** And the active dose range (DBA2 mice)?
**A.** Its active dose range is 0.005 to 0.05 µg/kg.

**Q.** What about the “difference in time spent in the black and white side” value (DBA2 mice; dose of 0.005 ug/kg) of the same molecule?
**A.** Its value is “decreased”.

**Q.** And the “preference for rearing in the black side” value (DBA2 mice; dose of 0.05 ug/kg)?
**A.** The value was “abolished”.

**Q.** For `Cc1cccc(NC(=O)N[C@H]2N=C(c3ccccc3)c3ccccc3N(C)C2=O)c1` [Example 11, (S)-N-(2,3-Dihydro-1-methyl-2-oxo-5-phenyl-1H-1,4-benzodiazepin-3-yl)-N′-(3-methylphonyl)-urea], which IC50 (CCK Receptor (Pancreas)) is on record?
**A.** Its IC50 is 0.0041 µM.

**Q.** And the IC50 (Gastrin Receptor)?
**A.** Its IC50 is 0.092 µM.

**Q.** Which results are given for `CN1C(=O)[C@@H](NC(=O)c2cc3ccccc3[nH]2)N=C(c2ccccc2)c2ccccc21` [Example 16, 3(S)-(-)-1,3-Dihydro-3-(2-indolecarbonylamino)-1-methyl-5-phenyl-2H-1,4-benzodiazepin-2-one]?
**A.** preference for locomotion (line crossings) in the black side (DBA2 mice; mice, 0.5, 5.0 and 500 ug/kg): abolished; difference in time spent in the black and white side (DBA2 mice; 5.0 and 500 ug/kg): abolished; active dose range (DBA2 mice): 0.05 to 5.0 µg/kg; preference for rearing in the black side (DBA2 mice; doses of 0.05, 0.5, 5.0 and 500 ug/kg): significantly decreased; habituation and period of exploratory activity (Sprague Dawley rats; s.c., 0.0001-10mg/kg, F(6,124) = 2.54, p<0.05): delayed habituation and prolonged the period of exploratory activity; levels of activity (Sprague Dawley rats; s.c., 0.1 mg/kg, at 25 minutes, p<0.01): significantly above controls; activity, higher and lower doses (Sprague Dawley rats; s.c., doses higher and lower than 0.1 mg/kg, at 25 minutes, bell-shaped dose response curve): no significant effect; Sniffing (rats; P<0.01): significantly increased; rearing (rats; P<0.01): significantly increased; cage crossing (rats; P<0.05): significantly increased

**Q.** What does the source list for `CN1C(=O)[C@H](NC(=O)Nc2cc3c(cn2)[nH]c2ccccc23)N=C(c2ccccc2)c2ccccc21` [Example 22]?
**A.** IC50 (CCK Receptor (Pancreas)): 0.0044 µM; IC50 (Gastrin Receptor): 1.3 µM

**Q.** With `CN1C(=O)[C@@H](NC(=O)c2cc3cc(O)ccc3[nH]2)N=C(c2ccccc2)c2ccccc21` [Example 27, 1,3-Dihydro-3-(5-hydroxyindole-2-carbonylamino)-1-methyl-5-phenyl-2H-1,4-benzodiapin-2-one] as the molecule, how does the IC50 (CCK Receptor (Pancreas)) read?
**A.** Its IC50 is 0.0033 µM.

**Q.** With “CCK-8 (DYMGWMDF; ends and bridges not checked; UniProt P06307 96-103, looked up) [reference compound]” as the molecule, how does the locomotor activity (Sprague Dawley rats; i.p., 0.5-16µg/kg, 30 minutes post injection, F(6,87) = 3.21 (p<0.01)) read?
**A.** Its locomotor activity is “dose-dependently decreased”.
